Data taken from US7713969B2, “Compositions and methods for treatment of cancer” (ArQule, Inc., priority 2005, dated 2010).

Key:
[1] = system: MDA-MB-231 human breast cancer xenograft; experiment: MDA-MB-231 xenograft, intraperitoneal 80 mg/kg (Example 82); type: in vivo, mice; conditions: 80 mg/kg intraperitoneally, 5 days on/2 off, four cycles, DMA/PEG 400
Description: Athymic female nude mice (CRL:NU/NU-nuBR) were injected subcutaneously in the flank with MDA-MB-231 human breast cancer cells (8×10^6 cells/mouse). Prior to injection, MDA-MB-231 cells were cultured in DMEM (Invitrogen #11965-092) supplemented with 10% (v/v) heat inactivated fetal bovine serum (FBS), 1% Hepes buffer solution (Invitrogen #15630-080) and 1% Penicillin/Streptomycin (Invitrogen #15140-122) at 37° C. in 5% CO2. Tumors were allowed to grow to approximately 50 mm^3 in size. Animals were randomized into three groups of eight animals per group. At day four post injection, mice with established tumors were treated intraperitoneally with (±)-Cis-3-(5,6-dihydro-4H-pyrrolo[3,2,1-ij]quinolin-1yl)-4(1H-indol-3-yl)pyrrolidine-2,5-dione (80 mg/kg), (±)-Trans-3-(5,6-dihydro-4H-pyrrolo[3,2,1-ij]quinolin-1-yl)-4(1H-indol-3-yl)pyrrolidine-2,5-dione (80 mg/kg) administered in DMA/PEG 400 (1:4 v/v) as the vehicle at 50 mg/ml, or vehicle control intraperitoneally. […] Tumor size was evaluated periodically during the study. For each subject, tumor volume was calculated using the formula (L×W^2)/2 where L and W were the length and width of the tumor, respectively. The arithmetic mean tumor volume was calculated for each treatment group+/−standard error of the mean (SEM). […]

[2] = system: MDA-MB-231 cells or Paca-2 cells; experiment: Cell survival in six-well plates, Wright-Giemsa stain (Example 77); type: cell-based; conditions: Homo sapiens; 0.1-2 μM, cultures observed 10-15 days; cell line of the IC50 not stated
Description: Exponentially growing MDA-MB-231 cells or Paca-2 cells were seeded at 1,000 cells per well in six-well plates and allowed to attach for 24 hours. MDA-MB-231 and Paca-2 cells were cultured in DMEM supplemented with 10% (v/v) fetal calf serum (FCS) and 5 ml Penicillin/Streptomycin at 37° C. in 5% CO2. MDA-MB-231 and Paca-2 were established estrogen receptor negative human breast cancer and pancreatic carcinoma cell lines, respectively. (±)-cis-3-(5,6-dihydro-4H-pyrrolo[3,2,1-ij]quinolin-1yl)-4(1H-indol-3-yl)pyrrolidine-2,5-dione or (±)-trans-3-(5,6-dihydro-4H-pyrrolo[3,2,1-ij]quinolin-1-yl)-4(1H-indol-3-yl)pyrrolidine-2,5-dione were each dissolved at a concentration of 10 mM in DMSO, and separately added to cells at a concentration of 0.1, 0.25, 0.5, 1 or 2 μM. Control plates received DMSO alone, at the same percentage of total culture volume as that administered in conjunction with the highest concentration of drug. Cell cultures were observed daily for 10-15 days, then fixed and stained with modified Wright-Giemsa stain (Sigma). Treatment with (±)-cis-3-(5,6-dihydro-4H-pyrrolo [3,2,1-ij]quinolin-1yl)-4(1H-indol-3-yl)pyrrolidine-2,5-dione or (±)-trans-3-(5,6-dihydro-4H-pyrrolo[3,2,1-ij]quinolin-1-yl)-4(1H-indol-3-yl)pyrrolidine-2,5-dione results in cell death of MDA-MB-231 cells or Paca-2 cells. See, e.g., FIG. 2.

MDA-MB-231 cells = experiment: Cancer cell invasion assay with inserts (Example 85); type: cell-based; conditions: Homo sapiens, 24 hours pretreatment, 24 hours invasion, read-out: estimated IC50, invasive phenotype
Description: MDA-MB-231 cells were pretreated with indicated concentrations of (−)-trans-3-(5,6-dihydro-4H-pyrrolo[3,2,1-ij]quinolin-1-yl)-4(1H-indol-3-yl)pyrrolidine-2,5-dione for 24 hours. 300 μl of each cell suspension (at a concentration 0.5×10^6 cells/mL in serum free medium) was placed in individual inserts and incubated for 24 hours at 37° C. The bottom wells housing the inserts contained 500 μl of 10% FBS medium. […] Each insert was then transferred to a clean well containing cell stain solution and incubated for 10 minutes at room temperature. The bottom of the insert was destained by incubating in extraction solution and OD was measured at 560 nm. (−)-trans-3-(5,6-dihydro-4H-pyrrolo[3,2,1-ij]quinolin-1-yl)-4(1H-indol-3-yl) pyrrolidine-2,5-dione inhibited the migration across interstices in confluent cultures of MDA-MB-231 cancer cells. The data represent the mean of two independent experiments. (See FIG. 9)

[3] = system: MDA-MB-231 human breast cancer xenograft; experiment: Breast cancer xenograft model (Example 86); type: in vivo, mice
Description: MDA-MB-231 human breast cancer cells were inoculated subcutaneously into female athymic nude mice (8.0×10^6 cells/mouse) and allowed to form palpable tumors. Once the tumors reached approximately 60 mm^3, the animals were treated orally with (−)-trans-3-(5,6-dihydro-4H-pyrrolo[3,2,1-ij]quinolin-1-yl)-4(1H-indol-3-yl)pyrrolidine-2,5-dione at 200 mg/kg or vehicle control daily (5 consecutive days, followed by a 2 day dosing holiday). (−)-trans-3-(5,6-dihydro-4H-pyrrolo[3,2,1-ij]quinolin-1-yl)-4(1H-indol-3-yl)pyrrolidine-2,5-dione was formulated in PEG 400:20% Vitamin E TPGS (60:40). The animals received a total of 20 doses of (−)-trans-3-(5,6-dihydro-4H-pyrrolo[3,2,1-ij]quinolin-1-yl)-4(1H-indol-3-yl)pyrrolidine-2,5-dione or vehicle control. Tumors were measured throughout treatment and the post-treatment observation period. Each point represents the mean±SEM of ten tumors. (See FIG. 10)

Row | SMILES | reduction of mean tumor volume compared to vehicle treated control [1] [%] | IC50 [2] [µM] | IC50 (MDA-MB-231 cells) [µM] | change in body weight ([3]; 200 mg/kg oral administration) | Tumor growth inhibition ([3]; 200 mg/kg orally, daily 5 days on/2 off, 20 doses) [%]
1 | O=C1NC(=O)[C@@H](c2cn3c4c(cccc24)CCC3)[C@@H]1c1c[nH]c2ccccc12 (racemic) [(±)-Trans-3-(5,6-dihydro-4H-pyrrolo[3,2,1-ij]quinolin-1-yl)-4(1H-indol-3-yl)pyrrolidine-2,5-dione] | 69.4 | 0.5 | – | – | –
2 | O=C1NC(=O)C(c2cn3c4c(cccc24)CCC3)C1c1c[nH]c2ccccc12 (single isomer, unassigned; (-)) | – | – | ~0.5 | no significant change in body weight | 79
